Columns and labels:
[1] = tested on: Palmer Amaranth; test: Field test in Roundup Ready soybeans: control (kill) of emerged Palmer Amaranth, reading 14 DAT; format: in vivo, Amaranthus palmeri; conditions: post emergence, all treatments with MSO 1% v/v, glufosinate 593, pyroxasulfone 90, flumiclorac-pentyl 73 g active/ha, % printed in b55 only
Description: (§1) The following field test was conducted. Roundup Ready soybeans (Glycine max) were used in the test as the crop plant. All of the treatments contained MSO concentrate oil at 1% v/v.
(§2) When the test began, the test plot had weeds that were less than […] tall. Treatments were administered at the concentrations as follows. Glufosinate-ammonium was administered at 593 grams/hectare. Pyroxasulfone was administered at 90 grams/hectare throughout the experiment.
(§3) On 14 DAT, readings were taken to determine the survival of Palmer Amaranth. On 21 DAT, readings were taken to determine the residual control of Palmer Amaranth and Horseweed. Survival ratings were taken by counting the number of alive and dead plants at the time of the reading. All data was analyzed using Bartlett's test and with p value of […] for determining significance of the results. The Effect of Glufosinate and Pyroxasulfone on Weeds.”

[2] = tested on: Palmer Amaranth; test: Field test in Roundup Ready soybeans: residual control of Palmer Amaranth, reading 21 DAT; format: in vivo, Amaranthus palmeri; conditions: all treatments with MSO 1% v/v, glufosinate 593, pyroxasulfone 90, flumiclorac-pentyl 73 g active/ha, % printed in b55 only
Description: as §1, §2, §3

[3] = tested on: Horseweed; test: Field test in Roundup Ready soybeans: control of Horseweed, reading 21 DAT; format: in vivo, Conyza Canadensis; conditions: all treatments with MSO 1% v/v, glufosinate 593, pyroxasulfone 90, flumiclorac-pentyl 73 g active/ha, % printed in b55 only
Description: as §1, §2, §3

SMILES	Palmer amaranth (<2″ tall) control / kill rate [1] [%]	Residual control of Palmer amaranth [2] [%]	Horseweed (bolted) control / kill rate [3] [%]
CP(=O)(O)CCC(N)C(=O)O (racemic) [glufosinate, DL-4-[hydroxy](methyl)phosphinoyl]-DL-homoalaninate]	90	93	75
Cn1nc(C(F)(F)F)c(CS(=O)(=O)C2=NOC(C)(C)C2)c1OC(F)F [pyroxasulfone, 3-[[[5-(difluoromethoxy)-1-methyl-3 (trifluoromethyl)-1H-pyrazol-4-yl]methyl]sulfonyl]-4,5-dihydro-5,5-dimethylisoxazole]	5	99	

Source: patent US9750259B2, “Pyroxasulfone and glutamine synthesis inhibitor compositions for weed control” (Valent U.S.A., priority 2014, dated 2017)
